Results taken from patent US7893062B2, “Pyrrolidine derivatives as dual NK1/NK3 receptor antagonists” (Hoffmann-La Roche Inc., priority 2007, dated 2011).

Assays:
human NK1 receptor = human NK1 receptor (Homo sapiens, UniProt P25103); test: NK1 receptor affinity, [3H]substance P displacement in CHO cell membranes; format: binding; conditions: human NK1 receptor in CHO cells, [3H]substance P 0.6 nM
Method: The affinity of test compounds for the NK1 receptor was evaluated at human NK1 receptors in CHO cells infected with the human NK1 receptor (using the Semliki virus expression system) and radiolabelled with [^3H]substance P (final concentration 0.6 nM). Binding assays were performed in HEPES buffer (50 mM, pH 7.4) containing BSA (0.04%) leupeptin (16.8 μg/ml), MnCl2 (3 mM) and phosphoramidon (2 μM). Binding assays consisted of 250 μl of membrane suspension (approximately 1.5 μg/well in a 96 well plate), […] of buffer of displacing agent and 125 μl of [^3H]substance P. Displacement curves were determined with at least seven concentrations of the compound. The assay tubes were incubated for 60 min at room temperature after which time the tube contents were rapidly filtered under vacuum through GF/C filters presoaked for 60 min with PEI (0.3%) with 3×1 ml washes of HEPES buffer (50 mM, pH 7.4). The radioactivity retained on the filters was measured by scintillation counting. All assays were performed in duplicate in at least 2 separate experiments. NK3

[1] = biological target: T1, human NK3 (hNK3) receptor (Homo sapiens, UniProt P29371); test: Recombinant hNK3 receptor affinity, [3H]SR142801 displacement; format: binding; conditions: recombinant hNK3 membranes, [3H]SR142801 0.3 nM
T1 construct: expressed in transfected cells
T1 sequence (P29371 1-465): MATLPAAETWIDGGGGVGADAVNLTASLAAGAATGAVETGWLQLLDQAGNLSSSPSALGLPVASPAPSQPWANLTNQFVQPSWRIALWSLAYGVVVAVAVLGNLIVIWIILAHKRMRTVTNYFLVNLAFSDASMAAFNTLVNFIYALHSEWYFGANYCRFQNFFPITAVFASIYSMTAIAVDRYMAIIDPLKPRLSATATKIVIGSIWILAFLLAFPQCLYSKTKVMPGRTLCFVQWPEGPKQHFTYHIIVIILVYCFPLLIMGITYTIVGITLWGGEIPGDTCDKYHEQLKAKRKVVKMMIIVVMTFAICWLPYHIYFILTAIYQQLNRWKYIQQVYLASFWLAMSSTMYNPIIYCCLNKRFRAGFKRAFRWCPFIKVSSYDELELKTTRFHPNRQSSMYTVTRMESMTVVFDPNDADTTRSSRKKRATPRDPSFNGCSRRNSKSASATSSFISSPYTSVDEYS
Method: Recombinant human NK3 (hNK3) receptor affinity was determined in a 96 well plate assay, using [^3H]SR142801 (final concentration 0.3 nM) to radiolabel the hNK3 receptor in the presence of 10 concentrations of competing compound or buffer. Non specific binding was determined using 10 μM SB222200. Assay buffer consisted of Tris-HCl (50 mM, pH 7.4), BSA (0.1%), MnCl2 (4 mM) and phosphoramidon (1 μM). Membrane preparations of hNK3 receptors (approximately 2.5 μg/well in a 96 well plate) were used to initiate the incubation for 90 min at room temperature. This assay was terminated by rapid filtration under vacuum through GF/C filters, presoaked for 90 min with PEI (0.3%), with 3×0.5 ml washes of ice-cold Tris buffer (50 mM, pH 7.4) containing 0.1% BSA. The radioactivity retained on the filters was measured by scintillation counting. All assays were performed in duplicate in at least two separate experiments.

[2] = phase II trial, cited from earlier work

human NK1 receptor, sequence (P25103 whole entry): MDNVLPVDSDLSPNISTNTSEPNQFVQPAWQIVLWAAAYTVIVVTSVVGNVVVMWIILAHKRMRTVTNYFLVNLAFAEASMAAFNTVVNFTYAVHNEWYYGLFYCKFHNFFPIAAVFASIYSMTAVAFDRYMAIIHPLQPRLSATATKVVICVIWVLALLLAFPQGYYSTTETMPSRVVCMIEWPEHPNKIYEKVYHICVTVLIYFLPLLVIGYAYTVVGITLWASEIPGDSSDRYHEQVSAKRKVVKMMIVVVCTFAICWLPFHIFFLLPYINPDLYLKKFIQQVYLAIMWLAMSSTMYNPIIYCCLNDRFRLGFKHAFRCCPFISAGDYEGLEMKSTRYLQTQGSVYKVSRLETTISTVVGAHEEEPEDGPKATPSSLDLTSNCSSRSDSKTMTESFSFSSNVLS

Ki (human NK1 receptor) [nM] | Ki [1] [nM] | Compound | activity on positive symptoms of schizophrenia ([2]; altered behaviour, delusion, hallucinations, extreme emotions, excited motor activity, incoherent speech) | activity in the treatment of negative symptoms of schizophrenia ([2]; depression, anhedonia, social isolation, memory and attention deficits)
0.875 | 203 | CN(C(=O)C(C)(C)c1cc(C(F)(F)F)cc(C(F)(F)F)c1)[C@@H]1CN(C(=O)N2CCN(S(C)(=O)=O)CC2)C[C@H]1c1ccccc1 (racemic) [Example 22, rac-2-(3,5-Bis-trifluoromethyl-phenyl)-N-[(3S,4R)-1-(4-methanesulfonyl-piperazine-1-carbonyl)-4-phenyl-pyrrolidin-3-yl]-N-methyl-isobutyramide] | – | –
1.12 | 92.4 | CN(C(=O)C(C)(C)c1cc(Cl)cc(Cl)c1)[C@@H]1CN(C(=O)N2CCN(S(C)(=O)=O)CC2)C[C@H]1c1ccc(F)cc1 (racemic) [Example 23, rac-2-(3,5-Dichloro-phenyl)-N-[(3S,4R)-4-(4-fluoro-phenyl)-1-(4-methanesulfonyl-piperazine-1-carbonyl)-pyrrolidin-3-yl]-N-methyl-isobutyramide] | – | –
1.92 | 200 | CN(C(=O)C(C)(C)c1cc(Cl)cc(Cl)c1)[C@@H]1CN(C(=O)N2CCOCC2)C[C@H]1c1ccc(F)cc1 (racemic) [Example 24, rac-2-(3,5-Dichloro-phenyl)-N-[(3S,4R)-4-(4-fluoro-phenyl)-1-(morpholine-4-carbonyl)-pyrrolidin-3-yl]-N-methyl-isobutyramide] | – | –
0.634 | 212 | CN(C(=O)C(C)(C)c1cc(C(F)(F)F)cc(C(F)(F)F)c1)[C@@H]1CN(C(=O)NCCO)C[C@H]1c1ccc(F)cc1 (racemic) [Example 26, rac-(3S,4R)-3-{[2-(3,5-Bis-trifluoromethyl-phenyl)-2-methyl-propionyl]-methyl-amino}-4-(4-fluoro-phenyl)-pyrrolidine-1-carboxylic acid (2-hydroxy-ethyl)-amide] | – | –
0.341 | 276 | Cc1cc(F)ccc1[C@@H]1CN(C(=O)N2CCOCC2)C[C@H]1N(C)C(=O)C(C)(C)c1cc(C(F)(F)F)cc(C(F)(F)F)c1 (racemic) [Example 27, rac-2-(3,5-Bis-trifluoromethyl-phenyl)-N-[(3S,4R)-4-(4-fluoro-2-methyl-phenyl)-1-(morpholine-4-carbonyl)-pyrrolidin-3-yl]-N-methyl-isobutyramide] | – | –
0.689 | 137 | Cc1cc(F)ccc1[C@@H]1CN(C(=O)N2CCN(S(C)(=O)=O)CC2)C[C@H]1N(C)C(=O)C(C)(C)c1cc(C(F)(F)F)cc(C(F)(F)F)c1 (racemic) [Example 28, rac-2-(3,5-Bis-trifluoromethyl-phenyl)-N-[(3S,4R)-4-(4-fluoro-2-methyl-phenyl)-1-(4-methanesulfonyl-piperazine-1-carbonyl)-pyrrolidin-3-yl]-N-methyl-isobutyramide] | – | –
3.16 | 30 | CN(C(=O)C(C)(C)c1cc(Cl)cc(Cl)c1)[C@@H]1CN(C(=O)N2CCN(S(C)(=O)=O)CC2)C[C@H]1c1ccc(Cl)cc1 (racemic) [Example 55, rac-N-[(3S,4R)-4-(4-Chloro-phenyl)-1-(4-methanesulfonyl-piperazine-1-carbonyl)-pyrrolidin-3-yl]-2-(3,5-dichloro-phenyl)-N-methyl-isobutyramide] | – | –

Further lines, the compound ahead of its results:

Compound | Ki (human NK1 receptor) [nM] | Ki [1] [nM] | activity on positive symptoms of schizophrenia ([2]; altered behaviour, delusion, hallucinations, extreme emotions, excited motor activity, incoherent speech) | activity in the treatment of negative symptoms of schizophrenia ([2]; depression, anhedonia, social isolation, memory and attention deficits)
CN(C(=O)C(C)(C)c1cc(C(F)(F)F)cc(C(F)(F)F)c1)[C@@H]1CN(C(=O)N2CCOCC2)C[C@H]1c1ccc(Cl)cc1 (racemic) [Example 2, rac-2-(3,5-Bis-trifluoromethyl-phenyl)-N-[(3S,4R)-4-(4-chloro-phenyl)-1-(morpholine-4-carbonyl)-pyrrolidin-3-yl]-N-methyl-isobutyramide] | 2.35 | 457 | – | –
CN(C(=O)C(C)(C)c1cc(C(F)(F)F)cc(C(F)(F)F)c1)[C@@H]1CN(C(=O)N2CCN(S(C)(=O)=O)CC2)C[C@H]1c1ccc(F)cc1 (racemic) [Example 15, rac-2-(3,5-Bis-trifluoromethyl-phenyl)-N-[(3S,4R)-4-(4-fluoro-phenyl)-1-(4-methanesulfonyl-piperazine-1-carbonyl)-pyrrolidin-3-yl]-N-methyl-isobutyramide] | 2.06 | 155 | – | –
CC(=O)N1CCN(C(=O)N2C[C@@H](N(C)C(=O)C(C)(C)c3cc(C(F)(F)F)cc(C(F)(F)F)c3)[C@H](c3ccc(F)cc3)C2)CC1 (racemic) [Example 16, rac-N-[(3S,4R)-1-(4-Acetyl-piperazine-1-carbonyl)-4-(4-fluoro-phenyl)-pyrrolidin-3-yl]-2-(3,5-bis-trifluoromethyl-phenyl)-N-methyl-isobutyramide] | 1.41 | 309 | – | –
CN(C(=O)C(C)(C)c1cc(C(F)(F)F)cc(C(F)(F)F)c1)[C@@H]1CN(C(=O)N(CCO)CCO)C[C@H]1c1ccc(F)cc1 (racemic) [Example 21, rac-(3S,4R)-3-{[2-(3,5-Bis-trifluoromethyl-phenyl)-2-methyl-propionyl]-methyl-amino}-4-(4-fluoro-phenyl)-pyrrolidine-1-carboxylic acid bis-(2-hydroxy-ethyl)-amide] | 1.08 | 204 | – | –
CC(=O)N(C)C1(c2ccccc2)CCN(CCC[C@]2(c3ccc(Cl)c(Cl)c3)CCCN(C(=O)c3ccccc3)C2)CC1 [SR 142,801, Osanetant] | – | – | active | inactive
